From PubChem BioAssay AID2127 (Sanford-Burnham Center for Chemical Genomics, 2009)
Calls of active or inactive are those of the source.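 How the source made its calls: active means half-maximal inhibitory concentration below a set limit; inactive means the rest.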

Biological target: E3 ubiquitin-protein ligase SIAH1 (Homo sapiens) (UniProt Q8IUQ4)
Assay: Siah-1 peptide-binding antagonists, alternate label, dose response, artefact control for Siah-1 antagonist project, biochemical, fluorescence polarization, fluorescein-plectin (AID 2127)
Settings: Siah-1/fluorescein-plectin binding

Structure (SMILES) | IC50
Cc1cc(C)n(-c2ccc(Cl)c(C(=O)Nc3cc(C(F)(F)F)ccc3Cl)n2)n1 | > 200 µM (inactive)
COc1cc(CNc2ccc(O)cc2)cc(Br)c1OCc1ccccc1F | > 200 µM (inactive)
O=C(O)CCN1C(=O)/C(=C/c2cn(-c3ccccc3)nc2-c2cccs2)SC1=S | > 200 µM (inactive)
CC(=O)c1ccc(NC(=O)CC2Nc3cccc4cccc(c34)NC2=O)cc1 (configuration not stated) | > 200 µM (inactive)
CCC1=Nc2cc(C(=O)O)ccc2Sc2ccccc21 | > 200 µM (inactive)
Cc1ccc(-n2cccn2)c([C@@H]2C[C@H]3CN(C)C(=O)[C@]34CCCN24)c1 | > 200 µM (inactive)
CCOC(=O)C1(C)C=C(Nc2ccc(O)cc2)C(=O)N1c1ccc(O)cc1 (configuration not stated) | > 200 µM (inactive)
Cc1ccccc1NC(=O)CN1C(=O)N/C(=C\c2ccccc2OCc2ccc(C(=O)O)cc2)C1=O | > 200 µM (inactive)

The remaining lines, values ahead:

IC50 | Structure (SMILES)
> 200 µM (inactive) | CCCCn1c(NC(=O)c2ccco2)c(S(=O)(=O)c2ccc(C)cc2)c2nc3ccccc3nc21
> 200 µM (inactive) | CC1CCN(S(=O)(=O)c2nnc(NC(=O)c3cccc(Cl)c3)s2)CC1
> 200 µM (inactive) | CC1=C(C#N)c2nc(N)c(C#N)c(C)c2/C1=C\c1ccc(-c2ccccc2C(=O)O)o1
> 200 µM (inactive) | O=C(Nc1ccc(Cl)cc1)c1ccc(S(=O)(=O)N2CCOCC2)cc1
> 200 µM (inactive) | Cc1ccc(CNc2ccc(O)cc2)cc1
> 200 µM (inactive) | O=C(Nc1cccc(Oc2ccc(C(=O)O)c(C(=O)O)c2)c1)c1ccc(-c2ccccc2)cc1
> 200 µM (inactive) | NS(=O)(=O)c1ccc(NC(=O)c2cccc(N3C(=O)c4ccccc4C3=O)c2)cc1
> 200 µM (inactive) | Cc1ccccc1-c1nc2c3ccccc3nc(=S)n2[nH]1
> 200 µM (inactive) | Cc1ccc(C(=O)NC2CC3CCCC(C2)N3C(=O)NC2CCCCC2)cc1 (configuration not stated)
